# According to patent US8916711B2, “Imidazothiazole-chalcone derivatives as potential anticancer agents and process for the preparation thereof” (Council of Scientific and Industrial Research, priority 2009, dated 2014):
# pIC50: −log10 of the molar value. Where two headings read alike, the source gives them in different places.
# Columns and labels:
# Assay type in all cases: cell-based
# MDA-MB-468 = experiment: NCI in vitro cytotoxicity (SRB, 48 h), Breast panel; conditions: Homo sapiens; MDA-MB-468, Breast; 48 h exposure
# Melanoma cell lines = experiment: NCI in vitro cytotoxicity, whole panel; conditions: Homo sapiens; for CC50: read-out: Log10 LC50 (converted)
# Breast cancer cell lines = experiment: NCI in vitro cytotoxicity, whole panel; conditions: Homo sapiens; for GI50 / CC50: Breast, average of six to eight cell lines; for GI50: read-out: Log10 GI50 (converted); for CC50: read-out: Log10 LC50 (converted); for pIC50: exposure period of at least 48 hrs, read-out: IC50, range over breast cell lines
# K-562 = experiment: NCI in vitro cytotoxicity (SRB, 48 h), Leukemia panel; conditions: Homo sapiens, K562; K-562, Leukemia; 48 h exposure
# SN12C = experiment: NCI in vitro cytotoxicity (SRB, 48 h), Renal panel; conditions: Homo sapiens, 48 h exposure
# SF-539 = experiment: NCI in vitro cytotoxicity (SRB, 48 h), CNS panel; conditions: Homo sapiens; SF-539, CNS; 48 h exposure
# UO-31 = experiment: NCI in vitro cytotoxicity (SRB, 48 h), Renal panel; conditions: Homo sapiens; UO-31, Renal; 48 h exposure
# NCI-H522 = experiment: NCI in vitro cytotoxicity (SRB, 48 h), Non-small cell lung panel; conditions: Homo sapiens, 48 h exposure
# HOP-92 = experiment: as above; conditions: Homo sapiens
# NCI-H322M = experiment: as above; conditions: Homo sapiens, 48 h exposure
# 786-0 = experiment: NCI in vitro cytotoxicity (SRB, 48 h), Renal panel; conditions: Homo sapiens; 786-0, Renal; 48 h exposure
# Leukemia cell lines = experiment: NCI in vitro cytotoxicity, whole panel; conditions: Homo sapiens; for CC50: read-out: Log10 LC50 (converted)
# U251 = experiment: NCI in vitro cytotoxicity (SRB, 48 h), CNS panel; conditions: Homo sapiens, U-251, 48 h exposure
# [1] = tested on: Non-small-cell lung cancer cell lines; experiment: NCI in vitro cytotoxicity, whole panel; conditions: Homo sapiens; for CC50: read-out: Log10 LC50 (converted)
# EKVX = experiment: NCI in vitro cytotoxicity (SRB, 48 h), Non-small cell lung panel; conditions: Homo sapiens, 48 h exposure
# [2] = tested on: sixty human tumour cell lines; experiment: NCI in vitro cytotoxicity, all panels; conditions: for CC50: read-out: Log10 LC50 mean graph midpoint (MG_MID) (converted)
# MOLT-4 = experiment: NCI in vitro cytotoxicity (SRB, 48 h), Leukemia panel; conditions: Homo sapiens; MOLT-4, Leukemia; 48 h exposure
# MALME-3M = experiment: NCI in vitro cytotoxicity (SRB, 48 h), Melanoma panel; conditions: Homo sapiens, 48 h exposure
# SK-MEL-5 = experiment: as above; conditions: Homo sapiens; SK-MEL-5, Melanoma; 48 h exposure
# NCI-H226 = experiment: NCI in vitro cytotoxicity (SRB, 48 h), Non-small cell lung panel; conditions: Homo sapiens, 48 h exposure
# NCI/ADR-RES = experiment: NCI in vitro cytotoxicity (SRB, 48 h), Ovarian panel; conditions: Homo sapiens, 48 h exposure
# [3] = tested on: Prostate cancer cell lines; experiment: NCI in vitro cytotoxicity, whole panel; conditions: Homo sapiens; for LC50: read-out: Log10 LC50 (converted)
# CAKI-1 = experiment: NCI in vitro cytotoxicity (SRB, 48 h), Renal panel; conditions: Homo sapiens; CAKI-1, Renal; 48 h exposure
# KM12 = experiment: NCI in vitro cytotoxicity (SRB, 48 h), Colon panel; conditions: Homo sapiens, 48 h exposure
# BT-549 = experiment: NCI in vitro cytotoxicity (SRB, 48 h), Breast panel; conditions: Homo sapiens; BT-549, Breast; 48 h exposure
# HCT-15 = experiment: NCI in vitro cytotoxicity (SRB, 48 h), Colon panel; conditions: Homo sapiens; HCT-15, Colon; 48 h exposure
# RXF 393 = experiment: NCI in vitro cytotoxicity (SRB, 48 h), Renal panel; conditions: Homo sapiens; RXF 393, Renal; 48 h exposure
# TK-10 = experiment: NCI in vitro cytotoxicity (SRB, 48 h), Renal panel; conditions: Homo sapiens; TK-10, Renal; 48 h exposure
# Renal cancer cell lines = experiment: NCI in vitro cytotoxicity, whole panel; conditions: Homo sapiens; for CC50: read-out: Log10 LC50 (converted)
# HL-60(TB) = experiment: NCI in vitro cytotoxicity (SRB, 48 h), Leukemia panel; conditions: Homo sapiens, 48 h exposure
# Method: (§1) The imidazothiazole-chalcone hybrids 7a, 7e, 7f, 8f and 19e have been tested against sixty human tumour cell lines derived from nine cancer types (leukemia, non-small cell lung cancer, colon cancer, CNS cancer, melanoma, ovarian cancer, renal cancer, prostate cancer and breast cancer) as per NCI protocol. For each compound, dose response curves for individual cell lines have been measured at a minimum of five concentrations at 10 fold dilutions. A protocol of 48 h continuous drug exposure has been used, and a sulforhodamine B (SRB) protein assay was used to estimate cell viability or growth. The concentration for 50% cell growth inhibition (GI50), total cell growth inhibition (TGI, 0% growth) and 50% cell death (LC50, […]) compared with the control has been calculated (Table-1).
# SR = experiment: as above; conditions: Homo sapiens
# Method: as §1
# OVCAR-5 = experiment: NCI in vitro cytotoxicity (SRB, 48 h), Ovarian panel; conditions: Homo sapiens; OVCAR-5, Ovarian; 48 h exposure
# SK-OV-3 = experiment: as above; conditions: Homo sapiens; SK-OV-3, Ovarian; 48 h exposure
# [4] = Melanoma, average of six to eight cell lines, read-out: Log10 GI50 (converted)
# [5] = Melanoma, average of six to eight cell lines
# [6] = exposure period of at least 48 hrs, read-out: GI50, range over melanoma cell lines
# [7] = HOP-92, Non-small cell lung, 48 h exposure
# [8] = Leukemia, average of six to eight cell lines, read-out: Log10 GI50 (converted)
# [9] = Leukemia, average of six to eight cell lines
# [10] = exposure period of at least 48 hrs, read-out: GI50, range over leukemia cell lines
# [11] = Non-small-cell lung, average of six to eight cell lines, read-out: Log10 GI50 (converted)
# [12] = Non-small-cell lung, average of six to eight cell lines
# [13] = exposure period of at least 48 hrs, read-out: GI50, range over lung cell lines
# [14] = Homo sapiens, sixty cell lines, nine panels, read-out: GI50 against sixty cell lines in nine cell panels
# [15] = human tumour cell lines, read-out: Log10 GI50 mean graph midpoint (MG_MID) (converted)
# [16] = Prostate cell, exposure period of at least 48 hrs, read-out: GI50, range over prostate cell lines
# [17] = Prostate, average of the panel's cell lines, read-out: Log10 GI50 (converted)
# [18] = Prostate, average of the panel's cell lines
# [19] = Renal, average of six to eight cell lines, read-out: Log10 GI50 (converted)
# [20] = Renal, average of six to eight cell lines
# [21] = exposure period of at least 48 hrs, read-out: GI50, range over renal cell lines
smiles,measurement,setting,value
"COc1cc(C(=O)/C=C/c2c(-c3ccc(F)cc3)nc3sc(C)cn23)cc(OC)c1OC [Compound 19e, (E)-3-(6-(4-fluorophenyl)-2-methylimidazo[2,1-b]thiazol-5-yl)-1-(3,4,5-trimethoxyphenyl)prop-2-en-1-one]",GI50,MDA-MB-468,2.38 µM
same,GI50,Melanoma cell lines; [4],3.02 µM
same,CC50,Melanoma cell lines; [5],≥ 100 µM
same,GI50,Melanoma cell lines; [6],0.51 to 7.07 µM
same,GI50,Breast cancer cell lines,3.63 µM
same,CC50,Breast cancer cell lines,≥ 100 µM
same,pIC50,Breast cancer cell lines,5.08 to 5.74
same,GI50,K-562,5.46 µM
same,GI50,SN12C,9.01 µM
same,GI50,SF-539,6.23 µM
same,GI50,UO-31,2.95 µM
same,GI50,NCI-H522,2.96 µM
same,GI50,HOP-92; [7],0.15 µM
same,GI50,"HOP-92; HOP-92, non-small cell lung",0.15 µM
same,GI50,NCI-H322M,8.65 µM
same,GI50,786-0,8.88 µM
same,GI50,Leukemia cell lines; [8],2.69 µM
same,CC50,Leukemia cell lines; [9],≥ 100 µM
same,GI50,Leukemia cell lines; [10],0.8 to 7.19 µM
same,GI50,U251,4.07 µM
same,GI50,[1]; [11],4.47 µM
same,CC50,[1]; [12],≥ 100 µM
same,GI50,[1]; [13],0.15 to 85.1 µM
same,GI50,EKVX,2.29 µM
same,GI50,[2]; [14],< 9 µM
same,Log10 TGI mean graph midpoint (MG_MID),[2]; human tumour cell lines,−4.14
same,"in vitro cytotoxicity, in words",[2]; human tumour cell lines,significant cytotoxicity
same,GI50,[2]; [15],4.79 µM
same,CC50,[2]; human tumour cell lines,95.5 µM
same,GI50,MOLT-4,1.62 µM
same,GI50,MALME-3M,2.69 µM
same,GI50,SK-MEL-5,0.51 µM
same,GI50,NCI-H226,9.58 µM
same,GI50,NCI/ADR-RES,2.63 µM
same,GI50,[3]; [16],2.41 to 7.52 µM
same,GI50,[3]; [17],4.27 µM
same,LC50,[3]; [18],≥ 100 µM
same,GI50,CAKI-1,1.78 µM
same,GI50,KM12,3.63 µM
same,GI50,BT-549,3.75 µM
same,GI50,HCT-15,3.76 µM
same,GI50,RXF 393,5.75 µM
same,GI50,TK-10,28 µM
same,GI50,Renal cancer cell lines; [19],6.31 µM
same,CC50,Renal cancer cell lines; [20],≥ 100 µM
same,GI50,Renal cancer cell lines; [21],1.78 to 28 µM
same,GI50,HL-60(TB),2.8 µM
same,GI50,SR; 48 h exposure,0.8 µM
same,GI50,OVCAR-5,> 100 µM
same,GI50,SK-OV-3,6.12 µM
"COc1ccc(C(=O)/C=C/c2c(C(F)(F)F)nc3sccn23)cc1OC [Compound 8f, (E)-1-(3,4-dimethoxyphenyl)-3-(6-(trifluoromethyl)imidazo[2,1-b]thiazol-5-yl) prop-2-en-1-one]",GI50,MDA-MB-468,6.18 µM
same,GI50,Melanoma cell lines; [4],3.63 µM
same,CC50,Melanoma cell lines; [5],≥ 100 µM
same,GI50,Melanoma cell lines; [6],0.6 to 8.48 µM
same,GI50,Breast cancer cell lines,2.95 µM
same,CC50,Breast cancer cell lines,≥ 100 µM
same,pIC50,Breast cancer cell lines,5.21 to 6.12
same,GI50,K-562,2.25 µM
same,GI50,SN12C,2.98 µM
same,GI50,SF-539,2.36 µM
same,GI50,UO-31,8.47 µM
same,GI50,NCI-H522,2.91 µM
same,GI50,HOP-92; [7],5.8 µM
same,GI50,NCI-H322M,3.17 µM
same,GI50,786-0,5.67 µM
same,GI50,Leukemia cell lines; [8],1.48 µM
same,CC50,Leukemia cell lines; [9],≥ 100 µM
same,GI50,Leukemia cell lines; [10],0.49 to 2.33 µM
same,GI50,U251,1.87 µM
same,GI50,[1]; [11],3.98 µM
same,CC50,[1]; [12],≥ 100 µM
same,GI50,[1]; [13],1.94 to 6.95 µM
same,GI50,EKVX,4.43 µM
same,GI50,[2]; [14],< 9 µM
same,Log10 TGI mean graph midpoint (MG_MID),[2]; human tumour cell lines,−4.22
same,"in vitro cytotoxicity, in words",[2]; human tumour cell lines,significant cytotoxicity
same,GI50,[2]; [15],3.09 µM
same,CC50,[2]; human tumour cell lines,100 µM
same,GI50,MOLT-4,2.22 µM
same,GI50,MALME-3M,5.92 µM
same,GI50,SK-MEL-5,4.2 µM
same,GI50,NCI-H226,6.95 µM
same,GI50,NCI/ADR-RES,1.88 µM
same,GI50,[3]; [16],1.64 to 5.39 µM
same,GI50,[3]; [17],2.95 µM
same,LC50,[3]; [18],≥ 100 µM
same,GI50,CAKI-1,2.46 µM
same,GI50,KM12,1.97 µM
same,GI50,BT-549,3.25 µM
same,GI50,HCT-15,2.54 µM
same,GI50,RXF 393,2.51 µM
same,GI50,TK-10,8.76 µM
same,GI50,Renal cancer cell lines; [19],4.9 µM
same,CC50,Renal cancer cell lines; [20],≥ 100 µM
same,GI50,Renal cancer cell lines; [21],2.46 to 8.76 µM
same,GI50,HL-60(TB),1 µM
same,GI50,SR,0.49 µM
same,GI50,SR; 48 h exposure,0.49 µM
same,GI50,OVCAR-5,4.18 µM
same,GI50,SK-OV-3,3.41 µM
